Tested on: HIV-1 infected adult subjects
Assay: Study 202 biomarkers of inflammation
Format: in vivo, human
Protocol: As an exploratory analysis, levels of inflammation biomarkers MCP-1, sCD14, high sensitivity C-reactive protein [hs-CRP], interleukin-6 [IL-6], D-dimer, and fibrinogen) were measured. Baseline values and changes from baseline at Week 24 and Week 48 of MCP-1, sCD14, hs-CRP, IL-6, D-dimer, and fibrinogen are summarized in Table 22.
The sCD14 samples were originally analyzed in 2 separate batches: Batch 1 included samples leading up to the Week 24 primary analysis and Batch 2 included Week 32 and Week 48 (end of study) samples. A repeat analysis of archived samples all analyzed in one batch was conducted for consistency in analysis across time points. To control for the effects of covariates, a linear mixed-model repeated-measures analysis was conducted on the changes from baseline in sCD14 (analysis dated September 2013).

## CCCCOCCOc1ccc(-c2ccc3c(c2)C=C(C(=O)Nc2ccc([S@@+]([O-])Cc4cncn4CCC)cc2)CCCN3CC(C)C)cc1 [CVC, (S)-8-[4-(2-Butoxyethoxy)phenyl]-1-isobutyl-N-(4-{[(1-propyl-1H-imidazol-5-yl)methyl]sulfinyl}phenyl)-1,2,3,4-tetrahydro-1-benzazocine-5-carboxamide]
CVC 100 mg, Week 12
  sCD14 (original values) change from baseline, mean: -140000 pg/mL
  sCD14 (original values) change from baseline, median: -160000 pg/mL
CVC 100 mg, Week 24
  D-dimer change from baseline, mean: -32 ng/mL
  D-dimer change from baseline, median: -1.0 ng/mL
  Fibrinogen change from baseline, mean: -3 mg/dL
  Fibrinogen change from baseline, median: -14 mg/dL
  IL-6 change from baseline, mean: 0.42 pg/mL
  IL-6 change from baseline, median: 0.00 pg/mL
  MCP-1 change from baseline, mean: 493 pg/mL
  MCP-1 change from baseline, median: 429 pg/mL
  hs-CRP change from baseline, mean: -0.16 mg/dL
  hs-CRP change from baseline, median: -0.03 mg/dL
  sCD14 (original values) change from baseline, mean: -190000 pg/mL
  sCD14 (original values) change from baseline, median: -180000 pg/mL
CVC 100 mg, Week 32
  sCD14 (original values) change from baseline, mean: 110000 pg/mL
  sCD14 (original values) change from baseline, median: 120000 pg/mL
CVC 100 mg, Week 48
  D-dimer change from baseline, mean: -41 ng/mL
  D-dimer change from baseline, median: -1.0 ng/mL
  Fibrinogen change from baseline, mean: 11 mg/dL
  Fibrinogen change from baseline, median: 15 mg/dL
  IL-6 change from baseline, mean: 0.29 pg/mL
  IL-6 change from baseline, median: 0.00 pg/mL
  MCP-1 change from baseline, mean: 636 pg/mL
  MCP-1 change from baseline, median: 523 pg/mL
  hs-CRP change from baseline, mean: -0.08 mg/dL
  hs-CRP change from baseline, median: -0.01 mg/dL
  sCD14 (original values) change from baseline, mean: 100000 pg/mL
  sCD14 (original values) change from baseline, median: 100000 pg/mL
CVC 200 mg, Week 12
  sCD14 (original values) change from baseline, mean: -230000 pg/mL
  sCD14 (original values) change from baseline, median: -210000 pg/mL
CVC 200 mg, Week 24
  D-dimer change from baseline, mean: -64 ng/mL
  D-dimer change from baseline, median: -50 ng/mL
  Fibrinogen change from baseline, mean: -7 mg/dL
  Fibrinogen change from baseline, median: -8 mg/dL
  IL-6 change from baseline, mean: 0.81 pg/mL
  IL-6 change from baseline, median: 0.00 pg/mL
  MCP-1 change from baseline, mean: 753 pg/mL
  MCP-1 change from baseline, median: 695 pg/mL
  hs-CRP change from baseline, mean: -0.04 mg/dL
  hs-CRP change from baseline, median: -0.04 mg/dL
  sCD14 (original values) change from baseline, mean: -230000 pg/mL
  sCD14 (original values) change from baseline, median: -190000 pg/mL
CVC 200 mg, Week 32
  sCD14 (original values) change from baseline, mean: 20000 pg/mL
  sCD14 (original values) change from baseline, median: -20000 pg/mL
CVC 200 mg, Week 48
  D-dimer change from baseline, mean: -70 ng/mL
  D-dimer change from baseline, median: -50 ng/mL
  Fibrinogen change from baseline, mean: -10 mg/dL
  Fibrinogen change from baseline, median: -13 mg/dL
  IL-6 change from baseline, mean: -0.04 pg/mL
  IL-6 change from baseline, median: 0.00 pg/mL
  MCP-1 change from baseline, mean: 900 pg/mL
  MCP-1 change from baseline, median: 756 pg/mL
  hs-CRP change from baseline, mean: -0.18 mg/dL
  hs-CRP change from baseline, median: -0.04 mg/dL
  sCD14 (original values) change from baseline, mean: -40000 pg/mL
  sCD14 (original values) change from baseline, median: -40000 pg/mL

— patent US20200268768A1, “CENICRIVIROC COMBINATION THERAPY FOR THE TREATMENT OF FIBROSIS” (Tobira Therapeutics, Inc., priority 2015, published 2020)
